Here are results for one molecule from patent US11504383B2, “Crystalline forms of a Ryanodine receptor modulator and uses thereof” (ARMGO Pharma, Inc., priority 2021, dated 2022).

“Also recorded” adds a separate entry of the source.

A short description of data set [1]: Storage stability of the polymorphs followed by XRD. Format: physicochemical. The conditions noted are these: after 24 months (XRD at 3, 6, 12 and 24 months). The protocol:
The top panel depicts the polymorph at initiation and the bottom three panels depict the polymorph after 24 months. FIG. 5 Panel A: initial control; FIG. 5 Panel B: sample stored for 2 years in open bottle in stability chambers at 25° C./60% relative humidity (RH); FIG. 5 Panel C: sample stored for 2 years in closed bottle in stability chambers at 40° C./75% RH; FIG. 5 Panel D: sample stored for 2 years in open bottle in stability chambers at 40° C./75% RH.
The top panel depicts the polymorph at initiation and the bottom panels depict the polymorph after 3, 6, 12 and 24 months.

The nature of data set [2]: Dynamic vapor sorption (hygroscopicity). The data set is classed as physicochemical. The conditions noted are these: DVS, 25° C., 0-90% relative humidity. The protocol:
Dynamic vapor sorption (DVS) analysis was performed by measuring mass variation of the crystalline form of 4-[(7-methoxy-2,3-dihydro-1,4-benzothiazepin-4(5H)yl)methyl]benzoic acid hemifumarate as a function of relative humidity using a DVS intrinsic instrument. A 5 mg to 10 mg of a sample of a crystalline form of 4-[(7-methoxy-2,3-dihydro-1,4-benzothiazepin-4(5H)yl)methyl]benzoic acid, hemifumarate was placed into a sample pan of a DVS intrinsic instrument at 25° C. under controlled humidity. The mass variation was recorded as a function of relative humidity.
Measurement of DVS comprised: (a) equilibrating a sample of the crystalline form at 25° C. and 50% relative humidity in a temperature-controlled and humidity controlled chamber until mass variation is less than 0.002% per minute for 6 hours; (b) increasing the relative humidity from 50% to 90% at a rate of 10% per hour; (c) equilibrating the sample at 90% relative humidity until mass variation of less than 0.002% per minute for 6 hours is observed; (d) decreasing the relative humidity from 90% to 0% at a rate of 10% per hour; (e) equilibrating the sample at 0% relative humidity until mass variation of less than 0.002% per minute for 6 hours is observed; and (f) increasing the relative humidity from 0% to 50% at a rate of 10% per hour.

Take `COc1ccc2c(c1)CN(Cc1ccc(C(=O)O)cc1)CCS2.O=C(O)/C=C/C(=O)O` [Form 2, 4-[(7-methoxy-2,3-dihydro-1,4-benzothiazepin-4(5H)yl)methyl]benzoic acid, hemifumarate]: in data set [1], the “Stability of the polymorph on storage (XRD, FIG. 10)” value is given as “stable”. Moreover, the Hygroscopicity entry in data set [2] is on record as “non-hygroscopic; also recorded: not hygroscopic”.
